Laboratory results as given in patent US20170226120A1, “INHIBITORS OF HIF PROLYL HYDROXYLASE” (MERCK SHARP & DOHME CORP., priority 2014, published 2017).

Columns and labels:
[1] = Tissue PK profile in rat (liver and plasma drug level); format: in vivo; details: 10 mg/kg; for concentration at 4 h: in vivo, po; for Kp at 4 h: liver/plasma, 4 hours after PO dosing at 10 mpk, vehicle 0.5% MC, read-out: liver/plasma ratio
Procedure: The tissue PK profile of compounds described in this application were evaluated in rat. The tissue was harvested 4 hours after PO dosing at 10 mpk (vehicle: 0.5% MC; dose volume: 5 mL/Kg) and the drug level was determined. Shown in Table 1 are compound concentrations of selected examples in rat liver and plasma, as well as liver to plasma drug ratio.

human HIF-PHD2 = target: T1, human HIF-PHD2 (Homo sapiens, UniProt Q9GZT9); experiment: HIF-PHD2 inhibition, time resolved fluorescence assay of HIF-1α peptide hydroxylation; format: biochemical; details: FLAG-tagged full length PHD2; 0.2 μM 2-oxoglutarate, 0.5 μM HIF-1α peptide
T1 construct: FLAG-tagged full length PHD2 expressed in and purified from baculovirus-infected Sf9 cells; FLAG; made in house; host or cells: baculovirus-infected Sf9 cells
Procedure: To each well of a 384-well plate, 1 μL of test compounds in DMSO (final concentration ranging from 0.3 nM to 10 uM) were added into 20 μl of assay buffer (50 mM Tris pH 7.4/0.01% Tween-20/0.1 mg/ml bovine serum albumin/10 μM ferrous sulfate/1 mM sodium ascorbate/20 μg/ml catalase) containing 0.15 μg/ml FLAG-tagged full length PHD2 expressed in and purified from baculovirus-infected Sf9 cells. After a 5 min preincubation at room temperature, the enzymatic reactions were initiated by the addition of 4 μL of substrates {final concentrations of 0.2 μM 2-oxoglutarate and 0.5 μM HIF-1α peptide biotinyl-[…] […] After incubation for 45 minutes at room temperature, the reactions were terminated by the addition of a 25 μL quench/detection mix to a final concentration of 1 mM ortho-phenanthroline, 0.1 mM EDTA, 0.5 nM anti-(His)6 LANCE reagent (Perkin-Elmer Life Sciences), 100 nM AF647-labeled streptavidin (Invitrogen), and 2 μg/ml (His)6-VHL complex {S. Tan Protein Expr. Purif.

T1 sequence (Q9GZT9 whole entry): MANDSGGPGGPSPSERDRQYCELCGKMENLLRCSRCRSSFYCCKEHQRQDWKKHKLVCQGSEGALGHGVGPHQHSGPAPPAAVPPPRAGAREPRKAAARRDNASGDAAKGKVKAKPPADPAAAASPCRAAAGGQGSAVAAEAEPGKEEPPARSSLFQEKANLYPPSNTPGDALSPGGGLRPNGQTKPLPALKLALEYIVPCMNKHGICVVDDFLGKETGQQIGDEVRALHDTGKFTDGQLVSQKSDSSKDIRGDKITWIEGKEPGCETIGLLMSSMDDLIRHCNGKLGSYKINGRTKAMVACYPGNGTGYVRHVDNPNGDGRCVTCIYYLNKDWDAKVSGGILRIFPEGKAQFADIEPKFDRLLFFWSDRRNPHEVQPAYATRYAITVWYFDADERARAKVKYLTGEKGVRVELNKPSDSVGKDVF

Structure (SMILES) | concentration at 4 h ([1]; liver concentration) [nM] | concentration at 4 h ([1]; plasma concentration) [nM] | Kp at 4 h [1] | IC50 (human HIF-PHD2) [nM]
O=C(O)CNC(=O)c1c(O)c2c(n(Cc3cc(F)c(F)cc3F)c1=O)COC2 [Example 41, 2-(4-hydroxy-2-oxo-1-(2,4,5-trifluorobenzyl)-1,2,5,7-tetrahydrofuro[3,4-b]pyridine-3-carboxamido)acetic acid] | 41400 | 476 | 87.3 | –
CC(C)(O)c1ccc(Cn2c3c(c(O)c(C(=O)NCC(=O)O)c2=O)COC3)cc1 [Example 5, 2-(4-Hydroxy-1-(4-(2-hydroxypropan-2-yl)benzyl)-2-oxo-1,2,5,7-tetrahydrofuro[3,4-b]pyridine-3-carboxamido)acetic acid] | 5600 | 26.7 | 214 | –
O=C(O)CNC(=O)c1c(O)c2c(n(Cc3nc4ccccc4o3)c1=O)COC2 [Example 46, 2-(1-(benzo[d]oxazol-2-ylmethyl)-4-hydroxy-2-oxo-1,2,5,7-tetrahydrofuro[3,4-b]pyridine-3-carboxamido)acetic acid] | 2070 | 34.5 | 55 | –
O=C(O)CNC(=O)c1c(O)c2c(n(Cc3ccn(-c4ccccc4)n3)c1=O)COC2 [Example 22, 2-(4-hydroxy-2-oxo-1-((1-phenyl-1H-pyrazol-3-yl)methyl)-1,2,5,7-tetrahydrofuro[3,4-b]pyridine-3-carboxamido)acetic acid] | 816 | 11.8 | 66.6 | –
O=C(O)CNC(=O)c1c(O)c2c(n(Cc3ncc(C(F)(F)F)cn3)c1=O)COC2 [Example 9, 2-(4-hydroxy-2-oxo-1-((5-(trifluoromethyl)pyrimidin-2-yl)methyl)-1,2,5,7-tetrahydrofuro[3,4-b]pyridine-3-carboxamido)acetic acid] | 1810 | 37.6 | 43.6 | –
O=C(O)CNC(=O)c1c(O)c2c(n(Cc3cnc(C(F)(F)F)nc3)c1=O)COC2 [Example 12, 2-(4-hydroxy-2-oxo-1-((2-(trifluoromethyl)pyrimidin-5-yl)methyl)-1,2,5,7-tctrahydrofuro[3,4-b]pyridine-3-carboxamido)acetic acid] | 775 | 12.3 | 67.3 | –
O=C(O)CNC(=O)c1c(O)c2c(n(Cc3cnc(C(F)(F)F)cn3)c1=O)COC2 [Example 11, 2-(4-hydroxy-2-oxo-1-((5-(trifluoromethyl)pyrazin-2-yl)methyl)-1,2,5,7-tetrahydrofuro[3,4-b]pyridine-3-carboxamido)acetic acid] | 7900 | 22 | 359 | –
O=C(O)CNC(=O)c1c(O)c2c(n(Cc3ccc(F)cc3F)c1=O)COC2 [Example 32, 2-(1-(2,4-difluorobenzyl)-4-hydroxy-2-oxo-1,2,5,7-tetrahydrofuro[3,4-b]pyridine-3-carboxamido)acetic acid] | 24800 | 492 | 52.8 | –
COC(=O)c1cccc(Cn2c3c(c(O)c(C(=O)NCC(=O)O)c2=O)COC3)c1 [Example 40, 2-(4-hydroxy-1-(3-(methoxycarbonyl)benzyl)-2-oxo-1,2,5,7-tetrahydrofuro[3,4-b]pyridine-3-carboxamido)acetic acid] | – | – | – | 8.1
O=C(O)CNC(=O)c1c(O)c2c(n(Cc3ccc(Cl)cc3F)c1=O)COC2 [Example 52, 2-(1-(4-chloro-2-fluorobenzyl)-4-hydroxy-2-oxo-1,2,5,7-tetrahydrofuro[3,4-b]pyridine-3-carboxamido)acetic acid] | – | – | – | 2.7
O=C(O)CNC(=O)c1c(O)c2c(n(Cc3ccc(C(F)(F)F)c(Br)c3)c1=O)COC2 [Example 45, 2-(1-(3-bromo-4-(trifluoromethyl)benzyl)-4-hydroxy-2-oxo-1,2,5,7-tetrahydrofuro[3,4-b]pyridine-3-carboxamido)acetic acid] | – | – | – | 3.3
O=C(O)CNC(=O)c1c(O)c2c(n(Cc3ccc(Cl)cc3)c1=O)COC2 [Example 27, 2-(1-(4-chlorobenzyl)-4-hydroxy-2-oxo-1,2,5,7-tetrahydrofuro[3,4-b]pyridine-3-carboxamido)acetic acid] | 21500 | 551 | 39.6 | –
COC(=O)c1ccccc1Cn1c2c(c(O)c(C(=O)NCC(=O)O)c1=O)COC2 [Example 39, 2-(4-hydroxy-1-(2-(methoxycarbonyl)benzyl)-2-oxo-1,2,5,7-tetrahydrofuro[3,4-b]pyridine-3-carboxamido)acetic acid] | – | – | – | 19.7
O=C(O)CNC(=O)c1c(O)c2c(n(Cc3ccc(F)cc3)c1=O)COC2 [Example 26, 2-(1-(4-fluorobenzyl)-4-hydroxy-2-oxo-1,2,5,7-tetrahydrofuro[3,4-b]pyridine-3-carboxamido)acetic acid] | – | – | – | 2.7
CCc1ccc(Cn2c3c(c(O)c(C(=O)NCC(=O)O)c2=O)COC3)cn1 [Example 63, 2-(4-Hydroxy-2-oxo-1-((6-ethylpyridin-3-yl)methyl)-1,2,5,7-tetrahydrofuro[3,4-b]pyridine-3-carboxamido)acetic acid] | – | – | – | 5.4
CNC(=O)c1ccc(Cn2c3c(c(O)c(C(=O)NCC(=O)O)c2=O)COC3)cc1 [Example 23, 2-(4-hydroxy-1-(4-(methylcarbamoyl)benzyl)-2-oxo-1,2,5,7-tetrahydrofuro[3,4-b]pyridine-3-carboxamido)acetic acid] | – | – | – | 10
N#Cc1ccccc1Cn1c2c(c(O)c(C(=O)NCC(=O)O)c1=O)COC2 [Example 33, 2-(1-(2-cyanobenzyl)-4-hydroxy-2-oxo-1,2,5,7-tetrahydrofuro[3,4-b]pyridine-3-carboxamido)acetic acid] | – | – | – | 4.6
N#Cc1ccc(Cn2c3c(c(O)c(C(=O)NCC(=O)O)c2=O)COC3)cc1F [Example 53, 2-(1-(4-cyano-3-fluorobenzyl)-4-hydroxy-2-oxo-1,2,5,7-tetrahydrofuro[3,4-b]pyridine-3-carboxamido)acetic acid] | – | – | – | 7.1
Cc1cc(C#N)ccc1Cn1c2c(c(O)c(C(=O)NCC(=O)O)c1=O)COC2 [Example 49, 2-(1-(4-cyano-2-methylbenzyl)-4-hydroxy-2-oxo-1,2,5,7-tetrahydrofuro[3,4-b]pyridine-3-carboxamido)acetic acid] | – | – | – | 5.1
O=C(O)CNC(=O)c1c(O)c2c(n(Cc3ccccn3)c1=O)COC2 [Example 36, 2-((3-((carboxymethyl)carbamoyl)-4-hydroxy-2-oxofuro[3,4-b]pyridin-1(2H,5H,7H)-yl)methyl)pyridin-1-ium chloride] | – | – | – | 4.8
CS(=O)(=O)c1ccc(Cn2c3c(c(O)c(C(=O)NCC(=O)O)c2=O)COC3)cc1 [Example 7, 2-(4-hydroxy-1-(4-(methylsulfonyl)benzyl)-2-oxo-1,2,5,7-tetrahydrofuro[3,4-b]pyridine-3-carboxamido)acetic acid] | – | – | – | 7
Cc1ncsc1Cn1c2c(c(O)c(C(=O)NCC(=O)O)c1=O)COC2 [Example 8, 2-(4-hydroxy-1-((4-methylthiazol-5-yl)methyl)-2-oxo-1,2,5,7-tetrahydrofuro[3,4-b]pyridine-3-carboxamido)acetic acid] | – | – | – | 5.2
O=C(O)CNC(=O)c1c(O)c2c(n(Cc3ccccc3)c1=O)COC2 [Example 25, 2-(1-benzyl-4-hydroxy-2-oxo-1,2,5,7-tetrahydrofuro[3,4-b]pyridine-3-carboxamido)acetic acid] | – | – | – | 9.2
O=C(O)CNC(=O)c1c(O)c2c(n(Cc3ccc(C(=O)O)cc3)c1=O)COC2 [Example 57, 4-((3-((Carboxymethyl)carbamoyl)-4-hydroxy-2-oxofuro[3,4-b]pyridin-1(2H,5H,7H)-yl)methyl)benzoic acid] | – | – | – | 7.2
O=C(O)CNC(=O)c1c(O)c2c(n(Cc3nc(C(F)(F)F)cs3)c1=O)COC2 [Example 21, 2-(4-hydroxy-2-oxo-1-((4-(trifluoromethyl)thiazol-2-yl)methyl)-1,2,5,7-tetrahydrofuro[3,4-b]pyridine-3-carboxamido)acetic acid] | 4770 | 8 | 587 | –
O=C(O)CNC(=O)c1c(O)c2c(n(Cc3cnc(C(F)(F)F)s3)c1=O)COC2 [Example 18, 2-(4-hydroxy-2-oxo-1-((2-(trifluoromethyl)thiazol-5-yl)methyl)-1,2,5,7-tetrahydrofuro[3,4-b]pyridine-3-carboxamido)acetic acid] | 11800 | 55.9 | 258 | –
O=C(O)CNC(=O)c1c(O)c2c(n(Cc3cnc4ccccc4c3)c1=O)COC2 [Example 48, 2-(4-hydroxy-2-oxo-1-(quinolin-3-ylmethyl)-1,2,5,7-tetrahydrofuro[3,4-b]pyridine-3-carboxamido)acetic acid] | – | – | – | 12.6
